Data on seven compounds can be found in US7994121B2, “Stable analogs of peptide and polypeptide therapeutics” (Trustees of Tufts College, priority 2003, dated 2011).

Data set [1] concerns the target human DPP IV (Homo sapiens, UniProt P27487). Description: Cleavage/degradation by DPP IV, HPLC/MS. Particulars: for resistance to cleavage by DPP IV: in comparison to native GLP-1; for degradation by human DPP IV: two hours of treatment with human DPP IV, versus untreated peptide. It counts as in vitro ADME. On the procedure:
However, it is most desirable to produce peptide analogs that are not only resistant to proteolysis, but also retain all or much of the biological activity of the native peptide. Accordingly, we conducted a series of experiments to ascertain whether these GLP-1 analogs which display robust resistance to degradation by DPP IV also retain biological activities of native GLP-1
TLE-modified GLP-1 analog was treated with human DPP IV for two hours, and degradation of the analog over time was compared to that of analog in the absence of DPP IV.

For data set [2] the following is noted: cited from earlier work.
Data set [3] deals with thrombin (Homo sapiens, UniProt P00734). Description: Thrombin digestion of model peptide, C18 HPLC/MS. In kind it is in vitro ADME. Particulars: 4 hours at 23° C., 10 nM thrombin, 0.1 M HEPES pH 8. As for the experimental part: Briefly, the peptide […] (SEQ ID NO: 31) is a model substrate for thrombin. Thrombin cleaves after the arginine residue. Accordingly, the serine residue of this model peptide is the P′1 positions. WALAPR^↓SFA
To compare digestion of the model peptide analog by thrombin with that of the native model peptide, peptides were digested for 4 hours at 23° C. with 10 nM thrombin in 0.1 M HEPES pH 8, 0.14 M NaCl, 5 mM CaCl2, 0.5% PEG6000. Following digestion, C18 reverse phase HPLC of the digests was compared to the undigested peptides, and the mass spectra of the major peaks are shown for each chromatogram in FIG. 7.

Entries after “also recorded” stand apart in the source; their conditions may differ. Read-outs that look alike come from different tables or passages of the source. Square brackets hold non-standard residues; d marks the D form. Ends that are not written are not given here. Peptide text beside a SMILES is read from it. Tle = CC(C)(C)[C@H](N)C(=O)O

Chain of human DPP IV (P27487 whole entry): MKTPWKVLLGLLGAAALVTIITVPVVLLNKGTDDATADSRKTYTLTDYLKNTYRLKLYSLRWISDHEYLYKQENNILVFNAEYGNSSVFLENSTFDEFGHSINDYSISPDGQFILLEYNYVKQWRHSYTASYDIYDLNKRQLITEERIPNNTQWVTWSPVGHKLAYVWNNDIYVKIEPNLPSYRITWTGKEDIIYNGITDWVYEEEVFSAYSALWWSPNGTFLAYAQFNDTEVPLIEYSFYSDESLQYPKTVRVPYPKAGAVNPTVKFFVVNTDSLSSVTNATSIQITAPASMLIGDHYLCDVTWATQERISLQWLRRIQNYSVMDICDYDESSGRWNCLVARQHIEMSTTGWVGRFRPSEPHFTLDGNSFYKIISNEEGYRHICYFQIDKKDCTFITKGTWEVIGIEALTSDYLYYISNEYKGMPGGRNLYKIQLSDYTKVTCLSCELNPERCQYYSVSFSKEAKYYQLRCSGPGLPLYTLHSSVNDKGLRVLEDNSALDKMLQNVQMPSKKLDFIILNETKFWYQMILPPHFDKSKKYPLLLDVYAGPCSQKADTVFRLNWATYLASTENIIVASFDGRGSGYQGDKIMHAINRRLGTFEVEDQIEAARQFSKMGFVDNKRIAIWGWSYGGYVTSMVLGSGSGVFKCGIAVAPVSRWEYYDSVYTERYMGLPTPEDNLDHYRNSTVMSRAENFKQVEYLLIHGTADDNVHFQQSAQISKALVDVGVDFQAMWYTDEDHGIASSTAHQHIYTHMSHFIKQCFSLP

On to “GLP-1 (BM): GLP1(7-37) analog wherein the P′1 glutamic acid is substituted by 3-butyl-methyl-glycine (HAXGTFTSDVSSYLEGQAAKEFIAWLVKGRG; non-natural residues)”, for which the “resistance to cleavage by DPP IV” value in data set [1] is listed as “resistant to cleavage by DPP IV”.
Take “GLP-1: exogenous GLP-1 given subcutaneously or intravenously to subjects (Deacon et al.); metabolite co-elutes with GLP-I(9-36) amide”: the “degradation of infused GLP-1” value in data set [2] (intravenous infusion) is on record as “extensively degraded”. Besides, the “metabolite share of the increase in plasma immunoreactivity (CO2H-terminal RIA)” value in data set [2] (thirty minutes after subcutaneous GLP-1, diabetic patients (n is 8)) is on record as 88.5+1.9%; in data set [2] (thirty minutes after subcutaneous GLP-1, healthy subjects (n=8)), 78.4+3.2%.
With `CC[C@H](C)[C@H](NC(=O)[C@H](Cc1ccccc1)NC(=O)[C@H](CCC(=O)O)NC(=O)[C@H](CCCCN)NC(=O)[C@H](C)NC(=O)[C@H](C)NC(=O)[C@H](CCC(N)=O)NC(=O)CNC(=O)[C@H](CCC(=O)O)NC(=O)[C@H](CC(C)C)NC(=O)[C@H](Cc1ccc(O)cc1)NC(=O)[C@H](CO)NC(=O)[C@H](CO)NC(=O)[C@@H](NC(=O)[C@H](CC(=O)O)NC(=O)[C@H](CO)NC(=O)[C@@H](NC(=O)[C@H](Cc1ccccc1)NC(=O)[C@@H](NC(=O)CNC(=O)C(NC(=O)[C@H](C)NC(=O)[C@@H](N)Cc1c[nH]cn1)C(C)(C)C(=O)O)[C@@H](C)O)[C@@H](C)O)C(C)C)C(=O)N[C@@H](C)C(=O)N[C@@H](Cc1c[nH]c2ccccc12)C(=O)N[C@@H](CC(C)C)C(=O)N[C@H](C(=O)N[C@@H](CCCCN)C(=O)NCC(=O)N[C@@H](CCCNC(=N)N)C(=O)NCC(=O)O)C(C)C` (stereo partly drawn) [GLP-1 (3DMA)], in data set [1], the “resistance to cleavage by DPP IV” value is recorded as “resistant to cleavage by DPP IV”.
WALAPRSFA [unmodified peptide]: in data set [3], the cleavage by thrombin result is “efficiently cleaved by thrombin”.
Regarding `CC[C@H](C)[C@H](NC(=O)[C@H](Cc1ccccc1)NC(=O)[C@H](CCC(=O)O)NC(=O)[C@H](CCCCN)NC(=O)[C@H](C)NC(=O)[C@H](C)NC(=O)[C@H](CCC(N)=O)NC(=O)CNC(=O)[C@H](CCC(=O)O)NC(=O)[C@H](CC(C)C)NC(=O)[C@H](Cc1ccc(O)cc1)NC(=O)[C@H](CO)NC(=O)[C@H](CO)NC(=O)[C@@H](NC(=O)[C@H](CC(=O)O)NC(=O)[C@H](CO)NC(=O)[C@@H](NC(=O)[C@H](Cc1ccccc1)NC(=O)[C@@H](NC(=O)CNC(=O)[C@@H](NC(=O)[C@H](C)NC(=O)[C@@H](N)Cc1c[nH]cn1)C(C)(C)C)[C@@H](C)O)[C@@H](C)O)C(C)C)C(=O)N[C@@H](C)C(=O)N[C@@H](Cc1c[nH]c2ccccc12)C(=O)N[C@@H](CC(C)C)C(=O)N[C@H](C(=O)N[C@@H](CCCCN)C(=O)NCC(=O)N[C@@H](CCCNC(=N)N)C(=O)NCC(=O)O)C(C)C` [TLE-modified GLP-1], the “degradation by human DPP IV” value in data set [1] is recorded as “resistant to degradation by DPP IV”.
As for `CC(C)C[C@H](NC(=O)[C@H](C)NC(=O)[C@@H](N)Cc1c[nH]c2ccccc12)C(=O)N[C@@H](C)C(=O)N1CCC[C@H]1C(=O)N[C@@H](CCCNC(=N)N)C(=O)N[C@H](C(=O)N[C@@H](Cc1ccccc1)C(=O)N[C@@H](C)C(=O)O)C(C)(C)C` [TLE substituted peptide analog, WALAPRXFA] (H-WALAPR[Tle]FA-OH), the cleavage by thrombin result in data set [3] was “not cleaved by thrombin”.
In the case of “HAE GTFTSDVSSY LEGQAAKEFI AWLVKGRG [GLP-1 (7-37)]”, the “degradation by human DPP IV” value in data set [1] is “time dependent degradation; also recorded: time dependent loss of peptide”.
